Test results as given in the kinase profiling compilation of Christmann-Franck et al. (2016).

Tests used:
Experiment in all cases: KINOMEscan competition binding
Conditions in all cases: compound 10.0 µM
[1] = target: AAK1 (human) (UniProt Q2M2I8)
[2] = target: ACVR2A (human) (UniProt P27037)
[3] = target: BRSK1 (human) (UniProt Q8TDC3)
[4] = target: CAMK1D (human) (UniProt Q8IU85)
[5] = target: CAMK2D (human) (UniProt Q13557)
[6] = target: CAMKK2 (human) (UniProt Q96RR4)
[7] = target: CDK15 (human) (UniProt Q96Q40)
[8] = target: CDK2 (human) (UniProt P24941)
[9] = target: CHEK1 (human) (UniProt O14757)
[10] = target: CSNK1G2 (human) (UniProt P78368)
[11] = target: DAPK3 (human) (UniProt O43293)
[12] = target: DCLK1 (human) (UniProt O15075)
[13] = target: DMPK (human) (UniProt Q09013)
[14] = target: DYRK1B (human) (UniProt Q9Y463)
[15] = target: EPHA4 (human) (UniProt P54764)
[16] = target: EPHB4 (human) (UniProt P54760)
[17] = system: FLT3 (human), P36888 [D835H]
[18] = system: FLT3 (human), P36888 [ITD]
[19] = target: HCK (human) (UniProt P08631)
[20] = target: IRAK3 (human) (UniProt Q9Y616)
[21] = target: MAP3K4 (human) (UniProt Q9Y6R4)
[22] = target: MAP3K5 (human) (UniProt Q99683)
[23] = target: MAPK13 (human) (UniProt O15264)
[24] = target: MAPK3 (human) (UniProt P27361)
[25] = target: MKNK1 (human) (UniProt Q9BUB5)
[26] = target: MLTK (human) (UniProt Q9NYL2)
[27] = target: MYLK (human) (UniProt Q15746)
[28] = target: MYO3A (human) (UniProt Q8NEV4)
[29] = target: NTRK2 (human) (UniProt Q16620)
[30] = target: PIK3C2B (human) (UniProt O00750)
[31] = target: PIK3CA (human) (UniProt P42336)
[32] = target: PKN1 (human) (UniProt Q16512)
[33] = target: PLK3 (human) (UniProt Q9H4B4)
[34] = target: PRKAA2 (human) (UniProt P54646)
[35] = target: PRKCH (human) (UniProt P24723)
[36] = target: ROCK2 (human) (UniProt O75116)
[37] = target: RPS6KA5 KD2 (human) (UniProt O75582)
[38] = target: RPS6KA6 KD2 (human) (UniProt Q9UK32)
[39] = target: SRPK2 (human) (UniProt P78362)
[40] = target: TEC (human) (UniProt P42680)
[41] = target: TEK (human) (UniProt Q02763)
[42] = target: TLK1 (human) (UniProt Q9UKI8)

Sequence of CDK15 (human) (Q96Q40 whole entry, looked up): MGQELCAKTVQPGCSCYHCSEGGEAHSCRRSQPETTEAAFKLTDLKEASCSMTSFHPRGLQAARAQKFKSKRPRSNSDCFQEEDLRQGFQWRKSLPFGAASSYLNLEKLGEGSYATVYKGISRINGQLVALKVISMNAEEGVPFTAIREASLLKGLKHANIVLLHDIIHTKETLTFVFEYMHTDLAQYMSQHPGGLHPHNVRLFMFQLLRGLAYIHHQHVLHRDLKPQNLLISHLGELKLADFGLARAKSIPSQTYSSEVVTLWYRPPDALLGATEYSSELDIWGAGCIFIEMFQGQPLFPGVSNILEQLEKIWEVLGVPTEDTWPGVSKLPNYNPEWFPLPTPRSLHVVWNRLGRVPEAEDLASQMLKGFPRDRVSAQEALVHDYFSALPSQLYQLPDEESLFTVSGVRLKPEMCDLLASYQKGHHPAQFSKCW
Sequence of CHEK1 (human) (O14757 whole entry, looked up): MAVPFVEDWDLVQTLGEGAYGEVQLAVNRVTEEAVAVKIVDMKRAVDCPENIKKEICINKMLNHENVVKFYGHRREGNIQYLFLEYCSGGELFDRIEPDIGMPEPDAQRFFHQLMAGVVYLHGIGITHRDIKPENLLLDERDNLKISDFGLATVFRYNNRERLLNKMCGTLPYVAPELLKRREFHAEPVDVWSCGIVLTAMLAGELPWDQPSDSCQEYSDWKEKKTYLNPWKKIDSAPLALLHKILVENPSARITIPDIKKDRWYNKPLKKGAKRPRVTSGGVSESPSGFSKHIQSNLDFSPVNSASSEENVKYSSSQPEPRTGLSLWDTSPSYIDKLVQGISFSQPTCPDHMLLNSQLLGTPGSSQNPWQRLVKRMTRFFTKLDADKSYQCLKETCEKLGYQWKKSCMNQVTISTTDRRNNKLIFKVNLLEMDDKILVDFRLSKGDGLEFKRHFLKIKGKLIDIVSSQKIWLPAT
Sequence of RPS6KA5 KD2 (human) (O75582 whole entry, looked up): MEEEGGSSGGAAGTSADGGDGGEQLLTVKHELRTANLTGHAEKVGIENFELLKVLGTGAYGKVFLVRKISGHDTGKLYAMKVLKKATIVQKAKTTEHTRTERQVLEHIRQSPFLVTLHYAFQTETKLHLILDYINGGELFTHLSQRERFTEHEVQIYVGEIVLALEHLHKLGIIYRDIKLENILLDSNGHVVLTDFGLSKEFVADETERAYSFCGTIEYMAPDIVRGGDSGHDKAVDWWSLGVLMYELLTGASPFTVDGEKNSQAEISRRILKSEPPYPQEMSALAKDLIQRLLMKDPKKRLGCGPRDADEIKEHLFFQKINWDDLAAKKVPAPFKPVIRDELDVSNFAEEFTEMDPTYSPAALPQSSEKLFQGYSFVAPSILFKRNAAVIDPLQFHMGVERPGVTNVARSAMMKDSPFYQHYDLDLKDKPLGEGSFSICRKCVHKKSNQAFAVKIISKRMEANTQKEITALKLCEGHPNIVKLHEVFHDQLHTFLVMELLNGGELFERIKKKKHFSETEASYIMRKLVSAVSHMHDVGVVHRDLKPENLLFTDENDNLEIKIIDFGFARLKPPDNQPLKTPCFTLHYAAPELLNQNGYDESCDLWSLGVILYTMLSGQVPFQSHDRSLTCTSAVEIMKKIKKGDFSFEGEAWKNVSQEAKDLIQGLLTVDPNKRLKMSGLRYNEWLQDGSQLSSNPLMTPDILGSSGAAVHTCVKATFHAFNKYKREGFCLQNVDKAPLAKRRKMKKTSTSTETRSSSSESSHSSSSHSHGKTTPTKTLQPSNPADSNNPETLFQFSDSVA
Sequence of PIK3CA (human) (P42336 whole entry, looked up): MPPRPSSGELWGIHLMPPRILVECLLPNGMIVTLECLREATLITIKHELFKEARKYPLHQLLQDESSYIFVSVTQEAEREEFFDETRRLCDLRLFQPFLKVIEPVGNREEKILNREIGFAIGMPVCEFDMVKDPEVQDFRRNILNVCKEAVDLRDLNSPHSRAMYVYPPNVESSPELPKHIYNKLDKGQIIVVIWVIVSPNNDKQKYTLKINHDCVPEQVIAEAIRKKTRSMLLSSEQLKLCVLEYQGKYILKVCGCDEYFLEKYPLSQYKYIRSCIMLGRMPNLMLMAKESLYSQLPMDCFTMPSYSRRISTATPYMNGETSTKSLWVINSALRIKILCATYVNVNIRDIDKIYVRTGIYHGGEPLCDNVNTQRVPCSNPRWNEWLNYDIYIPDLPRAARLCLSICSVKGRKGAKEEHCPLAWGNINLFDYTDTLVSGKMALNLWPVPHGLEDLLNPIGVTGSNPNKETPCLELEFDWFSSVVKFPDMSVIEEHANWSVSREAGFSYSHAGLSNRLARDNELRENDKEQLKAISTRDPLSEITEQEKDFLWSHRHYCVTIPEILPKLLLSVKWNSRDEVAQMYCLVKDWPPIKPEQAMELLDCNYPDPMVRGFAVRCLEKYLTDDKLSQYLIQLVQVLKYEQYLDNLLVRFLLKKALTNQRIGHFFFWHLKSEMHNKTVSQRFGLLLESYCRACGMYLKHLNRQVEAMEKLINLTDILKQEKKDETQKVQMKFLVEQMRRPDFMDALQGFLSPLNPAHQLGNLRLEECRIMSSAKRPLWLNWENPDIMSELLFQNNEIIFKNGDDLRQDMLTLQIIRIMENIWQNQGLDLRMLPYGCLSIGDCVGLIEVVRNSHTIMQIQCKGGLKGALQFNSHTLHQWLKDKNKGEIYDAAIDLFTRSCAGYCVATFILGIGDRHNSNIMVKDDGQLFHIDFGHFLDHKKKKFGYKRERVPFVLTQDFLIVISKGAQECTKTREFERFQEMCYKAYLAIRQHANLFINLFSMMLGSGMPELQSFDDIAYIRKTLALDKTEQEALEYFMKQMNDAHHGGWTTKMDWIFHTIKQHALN
Sequence of DCLK1 (human) (O15075 whole entry, looked up): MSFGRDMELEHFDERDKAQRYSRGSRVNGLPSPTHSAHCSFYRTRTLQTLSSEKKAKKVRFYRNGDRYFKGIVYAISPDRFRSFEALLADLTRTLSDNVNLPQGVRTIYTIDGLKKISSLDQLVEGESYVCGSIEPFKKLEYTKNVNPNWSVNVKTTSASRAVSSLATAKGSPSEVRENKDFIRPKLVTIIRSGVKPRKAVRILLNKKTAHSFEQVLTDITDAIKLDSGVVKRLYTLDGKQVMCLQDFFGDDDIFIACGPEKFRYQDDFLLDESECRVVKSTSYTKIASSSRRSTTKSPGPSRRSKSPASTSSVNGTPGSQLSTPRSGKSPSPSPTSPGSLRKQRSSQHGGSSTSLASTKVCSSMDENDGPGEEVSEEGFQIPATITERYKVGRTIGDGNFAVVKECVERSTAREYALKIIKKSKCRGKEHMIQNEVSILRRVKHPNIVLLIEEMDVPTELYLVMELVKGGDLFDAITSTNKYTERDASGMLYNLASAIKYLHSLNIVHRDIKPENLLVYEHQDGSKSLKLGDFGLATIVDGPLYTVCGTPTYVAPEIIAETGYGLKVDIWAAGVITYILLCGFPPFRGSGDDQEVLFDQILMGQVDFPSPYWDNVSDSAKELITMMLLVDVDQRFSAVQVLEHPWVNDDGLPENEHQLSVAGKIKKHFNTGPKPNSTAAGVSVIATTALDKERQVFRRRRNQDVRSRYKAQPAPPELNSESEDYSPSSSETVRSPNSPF
Sequence of PRKCH (human) (P24723 whole entry, looked up): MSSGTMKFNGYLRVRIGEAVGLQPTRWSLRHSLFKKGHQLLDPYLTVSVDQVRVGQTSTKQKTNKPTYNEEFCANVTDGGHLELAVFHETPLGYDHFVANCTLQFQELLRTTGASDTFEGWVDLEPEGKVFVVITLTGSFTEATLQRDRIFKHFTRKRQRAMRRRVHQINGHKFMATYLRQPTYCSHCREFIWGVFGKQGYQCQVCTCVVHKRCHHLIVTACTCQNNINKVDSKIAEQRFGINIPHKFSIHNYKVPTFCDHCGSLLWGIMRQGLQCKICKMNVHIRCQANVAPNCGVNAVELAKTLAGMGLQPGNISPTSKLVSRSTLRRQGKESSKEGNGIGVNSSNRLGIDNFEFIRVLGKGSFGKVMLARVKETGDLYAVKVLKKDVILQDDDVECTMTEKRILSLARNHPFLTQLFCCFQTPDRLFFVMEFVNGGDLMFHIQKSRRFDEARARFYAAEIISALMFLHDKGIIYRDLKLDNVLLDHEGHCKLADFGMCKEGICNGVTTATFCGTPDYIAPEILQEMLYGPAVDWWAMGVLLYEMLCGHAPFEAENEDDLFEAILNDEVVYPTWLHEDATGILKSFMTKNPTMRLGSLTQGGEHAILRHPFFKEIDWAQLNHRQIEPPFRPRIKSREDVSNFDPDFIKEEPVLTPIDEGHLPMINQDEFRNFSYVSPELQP
Sequence of RPS6KA6 KD2 (human) (Q9UK32 whole entry, looked up): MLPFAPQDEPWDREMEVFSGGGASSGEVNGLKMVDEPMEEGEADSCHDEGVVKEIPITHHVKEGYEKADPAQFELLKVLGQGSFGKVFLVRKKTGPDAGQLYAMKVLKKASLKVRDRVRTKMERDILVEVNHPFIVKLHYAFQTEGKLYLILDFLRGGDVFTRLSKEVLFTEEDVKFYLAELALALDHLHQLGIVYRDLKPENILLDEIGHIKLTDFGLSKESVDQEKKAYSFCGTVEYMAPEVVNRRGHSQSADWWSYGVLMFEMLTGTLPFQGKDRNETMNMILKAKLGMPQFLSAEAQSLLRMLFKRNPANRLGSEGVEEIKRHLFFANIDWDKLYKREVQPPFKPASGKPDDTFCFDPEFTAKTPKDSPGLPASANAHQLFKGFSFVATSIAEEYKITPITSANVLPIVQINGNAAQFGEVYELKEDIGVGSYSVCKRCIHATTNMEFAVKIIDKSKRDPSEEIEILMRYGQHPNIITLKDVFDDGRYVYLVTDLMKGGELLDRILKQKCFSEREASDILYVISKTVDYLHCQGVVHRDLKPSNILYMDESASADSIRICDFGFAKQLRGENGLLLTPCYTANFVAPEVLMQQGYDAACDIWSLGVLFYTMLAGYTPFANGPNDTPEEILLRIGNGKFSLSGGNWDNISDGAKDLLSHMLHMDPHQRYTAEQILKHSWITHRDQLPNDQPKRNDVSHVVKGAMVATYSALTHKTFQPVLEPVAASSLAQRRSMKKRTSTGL

CCN1CCN(Cc2ccc(NC(=O)c3ccc(C)c(/C=C/c4cnc(Nc5cc(N6CCNCC6)nc(C)n5)cn4)c3)cc2C(F)(F)F)CC1
kinase still bound, per cent of control [1]: 84% | kinase still bound, per cent of control [2]: 100% | kinase still bound, per cent of control [3]: 91% | kinase still bound, per cent of control [4]: 100% | kinase still bound, per cent of control [5]: 100% | kinase still bound, per cent of control [6]: 95% | kinase still bound, per cent of control [7]: 53% | kinase still bound, per cent of control [8]: 100% | kinase still bound, per cent of control [9]: 82% | kinase still bound, per cent of control [10]: 96% | kinase still bound, per cent of control [11]: 91% | kinase still bound, per cent of control [12]: 97% | kinase still bound, per cent of control [13]: 100% | kinase still bound, per cent of control [14]: 76% | kinase still bound, per cent of control [15]: 16% | kinase still bound, per cent of control [16]: 23% | kinase still bound, per cent of control [17]: 2.4% | kinase still bound, per cent of control [18]: 5.6% | kinase still bound, per cent of control [19]: 0.4% | kinase still bound, per cent of control [20]: 87% | kinase still bound, per cent of control [21]: 2.5% | kinase still bound, per cent of control [22]: 100% | kinase still bound, per cent of control [23]: 83% | kinase still bound, per cent of control [24]: 94% | kinase still bound, per cent of control [25]: 89% | kinase still bound, per cent of control [26]: 1.2% | kinase still bound, per cent of control [27]: 67% | kinase still bound, per cent of control [28]: 60% | kinase still bound, per cent of control [29]: 1% | kinase still bound, per cent of control [30]: 79% | kinase still bound, per cent of control [31]: 92% | kinase still bound, per cent of control [32]: 100% | kinase still bound, per cent of control [33]: 83% | kinase still bound, per cent of control [34]: 14% | kinase still bound, per cent of control [35]: 100% | kinase still bound, per cent of control [36]: 51% | kinase still bound, per cent of control [37]: 73% | kinase still bound, per cent of control [38]: 11% | kinase still bound, per cent of control [39]: 100% | kinase still bound, per cent of control [40]: 24% | kinase still bound, per cent of control [41]: 0% | kinase still bound, per cent of control [42]: 100%
